Laboratory results from patent publication USRE42890E1, “Furazanobenzimidazoles” (Basilea Pharmaceutica AG, priority 2003, dated 2011).
Like-named read-outs stand apart in the source and are kept apart here.

What was measured:
[1] = test system: Jurkat; experiment: MTS proliferation assay, Jurkat; type: cell-based, human; conditions: 72 h incubation, read-out: MTS proliferation assay IC 50 Jurkat
Summary of the method: (§1)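 Human lines, EGFP-transfected or not, grow in RPMI-1640 plus 5% or 10% FCS and 2-mercaptoethanol. They receive test compound for 72 h at final concentrations of 10, 3, 1 and 0.3 μM, and MTS conversion is measured at 492 nm.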

[2] = test system: Jily; experiment: MTS proliferation assay, Jily; type: cell-based; conditions: 72 h incubation, read-out: MTS proliferation assay IC 50 Jily
Summary of the method: (§2)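 Seed cells in complete RPMI-1640 medium and allow 24 h attachment. Add compounds to final 10 μM, 3 μM, 1 μM or 0.3 μM and incubate 72 h at 37° C. Add MTS, incubate 3 h more, then measure absorption at 492 nm.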

[3] = test system: HT1080; experiment: MTS proliferation assay, HT1080; type: cell-based, human; conditions: HT1080, 72 h incubation, read-out: MTS proliferation assay IC 50 HT1080
Summary of the method: as §1

[4] = test system: HeLa; experiment: MTS proliferation assay, HeLa; type: cell-based, human; conditions: 72 h incubation, read-out: MTS proliferation assay IC 50 HeLa
Summary of the method: as §1

[5] = test system: MRC5; experiment: MTS proliferation assay, MRC5; type: cell-based; conditions: MRC5, 72 h incubation, read-out: MTS proliferation assay IC 50 MRC5
Summary of the method: as §2

[6] = test system: adherent cells or suspension cells; experiment: Hoechst 33342 nuclear staining (fraction of apoptotic nuclei); type: cell-based; design: key: 0 relating to no activity; 1 relating to weak activity comprising less than 70% of the cells; score 2 relating to strong activity comprising more than 70% of the cells

Row | IC50 [1] | Structure (SMILES) | IC50 [2] | Hoechst 33342 nuclear staining score ([6]; H460, conc 0.01 μm) | Hoechst 33342 nuclear staining score ([6]; H460, conc 0.1 μm) | Hoechst 33342 nuclear staining score ([6]; H460, conc 1 μm) | Hoechst 33342 nuclear staining score ([6]; HeLa, conc 0.01 μm) | Hoechst 33342 nuclear staining score ([6]; HeLa, conc 0.1 μm) | Hoechst 33342 nuclear staining score ([6]; HeLa, conc 1 μm) | Hoechst 33342 nuclear staining score ([6]; Jily, conc 0.01 μm) | Hoechst 33342 nuclear staining score ([6]; Jily, conc 0.1 μm) | Hoechst 33342 nuclear staining score ([6]; Jily, conc 1 μm) | Hoechst 33342 nuclear staining score ([6]; Jurkat, conc 0.01 μm) | Hoechst 33342 nuclear staining score ([6]; Jurkat, conc 0.1 μm) | Hoechst 33342 nuclear staining score ([6]; Jurkat, conc 1 μm) | Hoechst 33342 nuclear staining score ([6]; MRC5, conc 0.01 μm) | Hoechst 33342 nuclear staining score ([6]; MRC5, conc 0.1 μm) | Hoechst 33342 nuclear staining score ([6]; MRC5, conc 1 μm) | Hoechst 33342 nuclear staining score ([6]; PBLs, conc 0.01 μm) | Hoechst 33342 nuclear staining score ([6]; PBLs, conc 0.1 μm) | Hoechst 33342 nuclear staining score ([6]; PBLs, conc 1 μm) | further results
1 |  | COCOc1ccc(C(=O)Cn2c(-c3nonc3N)nc3ccccc32)cc1OC [Example 15, 4-[1-(3-Methoxy-4-methoxymethoxy-phenacyl)-1H-benzimidazol-2-yl]-furazan-3-ylamine] | < 10 nM | 2 (score 2 relating to strong activity comprising more than 70% of the cells) | 2 (score 2 relating to strong activity comprising more than 70% of the cells) | 2 (score 2 relating to strong activity comprising more than 70% of the cells) | 1 (1 relating to weak activity comprising less than 70% of the cells) | 2 (score 2 relating to strong activity comprising more than 70% of the cells) | 2 (score 2 relating to strong activity comprising more than 70% of the cells) | 2 (score 2 relating to strong activity comprising more than 70% of the cells) | 2 (score 2 relating to strong activity comprising more than 70% of the cells) | 2 (score 2 relating to strong activity comprising more than 70% of the cells) | 2 (score 2 relating to strong activity comprising more than 70% of the cells) | 2 (score 2 relating to strong activity comprising more than 70% of the cells) | 2 (score 2 relating to strong activity comprising more than 70% of the cells) | 0 | 1 (1 relating to weak activity comprising less than 70% of the cells) | 2 (score 2 relating to strong activity comprising more than 70% of the cells) | 0 | 0 | 0 | IC50 ([1]; Homo sapiens): < 10 nM; IC50 ([3]; Homo sapiens, HT-1080): < 10 nM; IC50 ([4]; Homo sapiens): 10 to 100 nM; IC50 ([5]; Homo sapiens): < 10 nM
2 | 10 to 100 nM | N#CCCNc1nonc1-c1nc2ccccc2n1COc1ccc(Cl)cc1 [Example 93] | 10 to 100 nM | 0 | 1 (1 relating to weak activity comprising less than 70% of the cells) | 2 (score 2 relating to strong activity comprising more than 70% of the cells) | 0 | 0 | 2 (score 2 relating to strong activity comprising more than 70% of the cells) | 0 | 2 (score 2 relating to strong activity comprising more than 70% of the cells) | 2 (score 2 relating to strong activity comprising more than 70% of the cells) | 0 | 2 (score 2 relating to strong activity comprising more than 70% of the cells) | 2 (score 2 relating to strong activity comprising more than 70% of the cells) | 0 | 0 | 2 (score 2 relating to strong activity comprising more than 70% of the cells) | 0 | 0 | 0 | IC50 [3]: 100 to 1000 nM; IC50 [4]: 100 to 1000 nM; IC50 [5]: 100 to 1000 nM
3 | < 10 nM | Nc1ccc(C(=O)Cn2c(-c3nonc3N)nc3ccccc32)cc1[N+](=O)[O-] [Example 65] | < 10 nM | 2 (score 2 relating to strong activity comprising more than 70% of the cells) | 2 (score 2 relating to strong activity comprising more than 70% of the cells) | 2 (score 2 relating to strong activity comprising more than 70% of the cells) | 0 | 2 (score 2 relating to strong activity comprising more than 70% of the cells) | 2 (score 2 relating to strong activity comprising more than 70% of the cells) | 2 (score 2 relating to strong activity comprising more than 70% of the cells) | 2 (score 2 relating to strong activity comprising more than 70% of the cells) | 2 (score 2 relating to strong activity comprising more than 70% of the cells) | 2 (score 2 relating to strong activity comprising more than 70% of the cells) | 2 (score 2 relating to strong activity comprising more than 70% of the cells) | 2 (score 2 relating to strong activity comprising more than 70% of the cells) | 0 | 2 (score 2 relating to strong activity comprising more than 70% of the cells) | 2 (score 2 relating to strong activity comprising more than 70% of the cells) | 0 | 0 | 0 | IC50 [3]: < 10 nM; IC50 [4]: 10 to 100 nM; IC50 [5]: < 10 nM
4 | < 10 nM | N#CCCNc1nonc1-c1nc2ccccc2n1CC(=O)c1ccc(N)nc1 [Example 79] | < 10 nM | 2 (score 2 relating to strong activity comprising more than 70% of the cells) | 2 (score 2 relating to strong activity comprising more than 70% of the cells) | 2 (score 2 relating to strong activity comprising more than 70% of the cells) | 2 (score 2 relating to strong activity comprising more than 70% of the cells) | 2 (score 2 relating to strong activity comprising more than 70% of the cells) | 2 (score 2 relating to strong activity comprising more than 70% of the cells) | 2 (score 2 relating to strong activity comprising more than 70% of the cells) | 2 (score 2 relating to strong activity comprising more than 70% of the cells) | 2 (score 2 relating to strong activity comprising more than 70% of the cells) | 2 (score 2 relating to strong activity comprising more than 70% of the cells) | 2 (score 2 relating to strong activity comprising more than 70% of the cells) | 2 (score 2 relating to strong activity comprising more than 70% of the cells) | 1 (1 relating to weak activity comprising less than 70% of the cells) | 2 (score 2 relating to strong activity comprising more than 70% of the cells) | 2 (score 2 relating to strong activity comprising more than 70% of the cells) | 0 | 0 | 0 | IC50 [3]: < 10 nM; IC50 [4]: < 10 nM; IC50 [5]: < 10 nM
5 | 100 to 1000 nM | Nc1nonc1-c1nc2ccccc2n1CC(=O)c1ccc([N+](=O)[O-])cc1 [Example 49] | 100 to 1000 nM | 0 | 0 | 0 | 0 | 0 | 1 (1 relating to weak activity comprising less than 70% of the cells) | 0 | 0 | 1 (1 relating to weak activity comprising less than 70% of the cells) | 0 | 0 | 2 (score 2 relating to strong activity comprising more than 70% of the cells) | 0 | 0 | 0 | 0 | 0 | 0 | IC50 [3]: > 1000 nM; IC50 [4]: > 1000 nM; IC50 [5]: > 1000 nM
